Source: patent US20120058236A1, “SWEETENER COMPOSITION COMPRISING HIGH SOLUBILITY FORM OF REBAUDIOSIDE A AND METHOD OF MAKING” (Cargill Incorporated, priority 2009, published 2012)

How the values were obtained:
[1] = Stability of aqueous solution of rebaudioside A crystal form; assay type: physicochemical; conditions: solution from Form 1 crystals containing more than about 1 g/100 g water
Excerpt: In some sweetening applications it is desirable to provide a sweetener composition of rebaudioside A that has a higher solubility in water than Form 2. […] Increased solubility in water allows more of the sweetener to be dissolved in a food product in order to provide the desired sweetness level. Increased solubility may be desirable in food products such as syrups and concentrates.

[2] = assay type: physicochemical
Experimental: (§1) 10 mg of sample was mixed with 0.5 mL deionized water and stirred by a magnetic stirrer at room temperature. As the solid was completely dissolved, more solid was added to the system with the increments of 10-40 mg until the solution became cloudy, which corresponded to the final concentration of 0.41 g/mL. The cloudy solution was filtered through a Millex-GV 0.22 um filter into a pre-weighted aluminum pan and the known mass of clear filtered solution was placed into an oven at 85° C. The solvent was completely evaporated and the residual solid was weighted to determine solubility.
as §1, with “16 mg of” for “10 mg of”, “mixed with 1 mL deionized” for “mixed with 0.5 mL deionized”, “water and was stirred by” for “water and stirred by”, “concentration of 0.4 g/mL. The” for “concentration of 0.41 g/mL. The”

Concentration left in solution after conversion to Form 2 ([1]; after hours to days)	Solubility at 22° C. (grams/100 grams water) [2] [grams/100 grams water]	Solubility in water at 24° C. (typical, stated in text) [2]	Structure (SMILES)	Stability in solution (conversion of dissolved form) [1]
about 1 g/100 g water			C=C1C[C@@]23CC[C@H]4[C@@](C)(CCC[C@@]4(C)C(=O)O[C@@H]4O[C@H](CO)[C@@H](O)[C@H](O)[C@H]4O)[C@@H]2CC[C@]1(O[C@@H]1O[C@H](CO)[C@@H](O)[C@H](O[C@@H]2O[C@H](CO)[C@@H](O)[C@H](O)[C@H]2O)[C@H]1O[C@@H]1O[C@H](CO)[C@@H](O)[C@H](O)[C@H]1O)C3 [Form 1, rebaudioside A]	tends to convert to Form 2 within hours to days
	0.154	≤ 1 grams rebaudioside A/100 grams	C=C1C[C@@]23CC[C@H]4[C@@](C)(CCC[C@@]4(C)C(=O)O[C@@H]4O[C@H](CO)[C@@H](O)[C@H](O)[C@H]4O)[C@@H]2CC[C@]1(O[C@@H]1O[C@H](CO)[C@@H](O)[C@H](O[C@@H]2O[C@H](CO)[C@@H](O)[C@H](O)[C@H]2O)[C@H]1O[C@@H]1O[C@H](CO)[C@@H](O)[C@H](O)[C@H]1O)C3 [Form 2, rebaudioside A]	
